According to ChEMBL document CHEMBL6121062, “Discovery, Optimization, and Preclinical Pharmacology of EP652, a METTL3 Inhibitor with Efficacy in Liquid and Solid Tumor Models” (J Med Chem, 2025):
Calls of active or inactive are those of the source. The rule behind the calls is not given here.

Assays:
[1] = target: T1, METTL3/METTL14 (Homo sapiens, UniProt Q86U44); test: (§1) Inhibition of METTL3/METTL14-mediated m6A mRNA expression in human Kasumi 1 cells incubated for 24 hrs by LC-MS/MS analysis; type: cell-based
[2] = target: T2, METTL3/METTL14 (Homo sapiens) (UniProt Q86U44+Q9HCE5); test: as §1; type: cell-based
[3] = target: T1, METTL3/METTL14; test: (§2) Inhibition of METTL3/METTL14-mediated m6A mRNA expression in human SK-OV-3 cells incubated for 24 hrs by LC-MS/MS analysis; type: cell-based
[4] = target: T2, METTL3/METTL14 (Homo sapiens); test: as §2; type: cell-based
[5] = tested on: A549; test: Antitumor activity against human A549 cells xenografted in NSG mouse assessed as prolongation of animal survival at 30 mg/kg, ip qd treated for 50 days; type: functional, organism-based; conditions: time 50.0 day
[6] = tested on: Kasumi 1; test: Antiproliferative activity against human Kasumi 1 cells assessed as inhibition of cell viability incubated for 72 hrs by ATPlite assay; type: functional, cell-based; conditions: Kasumi 1, 72 h
[7] = target: Voltage-gated inwardly rectifying potassium channel KCNH2 (Homo sapiens, UniProt Q12809); test: Inhibition of hERG transfected in HEK293 cells at 20 mV; type: toxicity, cell-based
[8] = Toxicity in NSG mouse xenografted with human SK-OV-3 cells assessed as body weight gain at 30 mg/kg, ip qd treated for 83 days; type: organism-based; conditions: in vivo, 1992 h, time 83 day
[9] = target: T3, Cytochrome P450 1A2 (Homo sapiens, UniProt P05177); test: Inhibition of CYP1A2 (unknown origin); type: ADME
T3 sequence (P05177 whole entry): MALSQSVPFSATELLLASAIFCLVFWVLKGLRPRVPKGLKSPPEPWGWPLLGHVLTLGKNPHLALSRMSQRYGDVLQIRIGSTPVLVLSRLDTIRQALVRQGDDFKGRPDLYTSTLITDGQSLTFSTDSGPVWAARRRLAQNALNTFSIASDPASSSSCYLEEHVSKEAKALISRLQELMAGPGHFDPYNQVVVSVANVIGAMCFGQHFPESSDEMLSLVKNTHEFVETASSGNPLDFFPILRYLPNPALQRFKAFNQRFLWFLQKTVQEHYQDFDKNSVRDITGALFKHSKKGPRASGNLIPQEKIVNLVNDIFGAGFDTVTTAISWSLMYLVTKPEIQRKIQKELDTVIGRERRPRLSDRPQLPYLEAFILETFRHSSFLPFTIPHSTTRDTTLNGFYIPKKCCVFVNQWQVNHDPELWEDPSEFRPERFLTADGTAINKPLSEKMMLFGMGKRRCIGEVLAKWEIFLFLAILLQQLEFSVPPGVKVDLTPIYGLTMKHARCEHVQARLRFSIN

[10] = Unbound AUC in Sprague-Dawley rat at 1 mg/kg/day, iv measured for 24 hrs by LC-MS/MS analysis; type: ADME, organism-based; conditions: in vivo
[11] = tested on: A549; test: Antiproliferative activity against human A549 cells assessed as inhibition of cell viability incubated for 72 hrs by ATPlite assay; type: functional, cell-based; conditions: A549, 72 h
[12] = Toxicity in NSG mouse xenografted with human SK-OV-3 cells assessed as macroscopic adverse events at 30 mg/kg, ip qd treated for 83 days; type: organism-based; conditions: in vivo, 1992 h, time 83 day
[13] = Unbound fraction in Sprague-Dawley rat plasma at 1 mg/kg/day, iv measured for 24 hrs by LC-MS/MS analysis; type: ADME, organism-based; conditions: in vivo
[14] = tested on: SK-OV-3; test: Antitumor activity against human SK-OV-3 cells xenografted in NSG mouse assessed as prolongation of animal survival at 30 mg/kg, ip qd treated for 83 days; type: functional, organism-based; conditions: time 83.0 day
[15] = Half life in human liver microsomes; type: ADME, Microsome
[16] = tested on: MV4-11; test: Induction of apoptosis in human MV4-11 cells incubated for 48 hrs by Caspase-Glo 3/7 assay; type: functional, cell-based
[17] = target: Cytochrome P450 3A4 (Homo sapiens, UniProt P08684); test: Inhibition of CYP3A4 (unknown origin); type: ADME
[18] = target: T1, METTL3/METTL14; test: (§3) Inhibition of METTL3/METTL14-mediated m6A mRNA expression in human Calu-6 cells incubated for 24 hrs by LC-MS/MS analysis; type: cell-based
[19] = target: T2, METTL3/METTL14 (Homo sapiens); test: as §3; type: cell-based
[20] = tested on: FaDu; test: Antitumor activity against human FaDu cells xenografted in NSG mouse assessed as tumor growth inhibition at 30 mg/kg, ip qd treated for 20 days; type: functional, organism-based; conditions: time 20.0 day
[21] = tested on: Kasumi 1; test: Induction of apoptosis in human Kasumi 1 cells incubated for 48 hrs by Caspase-Glo 3/7 assay; type: functional, cell-based
[22] = tested on: FaDu; test: Antiproliferative activity against human FaDu cells assessed as inhibition of cell viability incubated for 72 hrs by ATPlite assay; type: functional, cell-based
[23] = target: Cytochrome P450 2C9 (Homo sapiens, UniProt P11712); test: Inhibition of CYP2C9 (unknown origin); type: ADME
[24] = target: T1, METTL3/METTL14; test: (§4) Inhibition of METTL3/METTL14-mediated m6A mRNA expression in human A549 cells incubated for 24 hrs by LC-MS/MS analysis; type: cell-based
[25] = target: T2, METTL3/METTL14 (Homo sapiens); test: as §4; type: cell-based
[26] = Toxicity in NSG mouse xenografted with human FaDu cells assessed as body weight gain at 30 mg/kg, ip qd treated for 20 days; type: organism-based; conditions: in vivo, 480 h, time 20 day
[27] = tested on: Acute myeloid leukemic cell; test: Antitumor activity against patient-derived human Acute myeloid leukemic cells xenografted in NSG mouse assessed as prolongation of animal survival at 30 mg/kg, ip qd treated for 91 days measured upto 112 days; type: functional, organism-based; conditions: time <= 112.0 day
[28] = Stability in human hepatocytes assessed as half life; type: ADME, cell-based, Hepatocyte
[29] = target: T1, METTL3/METTL14; test: Displacement of [3H]-SAM from METTL3/METTL14 (unknown origin) using 5'biotinylated-UACACUCGAUCUGGACUAAAGGUGCUC-3' RNA as substrate preincubated for 10 mins followed by substrate/[3H]-SAM addition measured after 90 mins by SPA; type: protein-complex assay
[30] = tested on: FaDu; test: Antitumor activity against human FaDu cells xenografted in NSG mouse assessed as prolongation of animal survival at 30 mg/kg, ip qd treated for 20 days; type: functional, organism-based; conditions: time 20.0 day
[31] = target: T1, METTL3/METTL14; test: (§5) Inhibition of METTL3/METTL14-mediated m6A mRNA expression in human FaDu cells incubated for 24 hrs by LC-MS/MS analysis; type: cell-based
[32] = target: T2, METTL3/METTL14 (Homo sapiens); test: as §5; type: cell-based
[33] = tested on: MV4-11; test: Antitumor activity against human MV4-11 cells expressing Luc-mCh-Puro xenografted in NSG mouse administered intraperitoneally once daily measured after 19 days by bioluminescence imaging analysis; conditions: dose 10-30 mg/kg, route ip, time 19.0 day
[34] = Toxicity in NSG mouse xenografted with human A549 cells assessed as body weight gain at 30 mg/kg, ip qd treated for 50 days; type: organism-based; conditions: in vivo, 1200 h, time 50 day
[35] = tested on: Calu-6; test: Antiproliferative activity against human Calu-6 cells assessed as inhibition of cell viability incubated for 72 hrs by ATPlite assay; type: functional, cell-based; conditions: Calu-6, 72 h
[36] = tested on: A549; test: Antitumor activity against human A549 cells xenografted in NSG mouse assessed as tumor growth inhibition at 30 mg/kg, ip qd treated for 50 days by bioluminescence imaging analysis; type: functional, organism-based; conditions: time 50.0 day
[37] = target: Cytochrome P450 2D6 (Homo sapiens, UniProt P10635); test: Inhibition of CYP2D6 (unknown origin); type: ADME
Cytochrome P450 2D6, sequence (P10635 whole entry): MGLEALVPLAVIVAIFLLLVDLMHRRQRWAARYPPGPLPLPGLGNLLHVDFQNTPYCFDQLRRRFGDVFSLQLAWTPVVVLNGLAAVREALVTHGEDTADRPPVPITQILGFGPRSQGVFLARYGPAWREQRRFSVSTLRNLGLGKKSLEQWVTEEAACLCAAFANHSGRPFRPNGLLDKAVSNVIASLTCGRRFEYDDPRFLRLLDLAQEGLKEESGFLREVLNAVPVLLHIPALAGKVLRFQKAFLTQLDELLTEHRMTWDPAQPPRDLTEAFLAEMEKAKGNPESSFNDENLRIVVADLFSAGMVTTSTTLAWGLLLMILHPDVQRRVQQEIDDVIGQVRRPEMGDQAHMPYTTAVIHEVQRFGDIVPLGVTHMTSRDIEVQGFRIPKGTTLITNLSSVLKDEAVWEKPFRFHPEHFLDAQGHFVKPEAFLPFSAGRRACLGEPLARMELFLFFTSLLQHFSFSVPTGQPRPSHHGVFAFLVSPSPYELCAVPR

T1 sequence (Q86U44 whole entry): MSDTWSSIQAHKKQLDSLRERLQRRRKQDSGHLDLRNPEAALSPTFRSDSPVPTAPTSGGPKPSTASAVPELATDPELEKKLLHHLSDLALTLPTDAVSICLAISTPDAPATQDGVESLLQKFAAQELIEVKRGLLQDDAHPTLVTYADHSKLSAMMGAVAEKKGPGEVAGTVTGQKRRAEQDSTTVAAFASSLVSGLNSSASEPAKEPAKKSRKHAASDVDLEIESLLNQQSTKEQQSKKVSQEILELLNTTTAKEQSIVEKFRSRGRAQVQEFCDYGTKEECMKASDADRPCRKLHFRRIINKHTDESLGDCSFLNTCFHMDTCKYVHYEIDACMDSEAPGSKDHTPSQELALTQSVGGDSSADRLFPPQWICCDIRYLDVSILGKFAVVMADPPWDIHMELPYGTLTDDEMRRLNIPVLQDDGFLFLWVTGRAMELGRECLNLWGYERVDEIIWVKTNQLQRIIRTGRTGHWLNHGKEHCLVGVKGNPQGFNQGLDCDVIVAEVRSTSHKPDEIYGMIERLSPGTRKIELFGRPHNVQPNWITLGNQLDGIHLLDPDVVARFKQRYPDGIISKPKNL
T1 sequence (Q9HCE5 whole entry, further chain): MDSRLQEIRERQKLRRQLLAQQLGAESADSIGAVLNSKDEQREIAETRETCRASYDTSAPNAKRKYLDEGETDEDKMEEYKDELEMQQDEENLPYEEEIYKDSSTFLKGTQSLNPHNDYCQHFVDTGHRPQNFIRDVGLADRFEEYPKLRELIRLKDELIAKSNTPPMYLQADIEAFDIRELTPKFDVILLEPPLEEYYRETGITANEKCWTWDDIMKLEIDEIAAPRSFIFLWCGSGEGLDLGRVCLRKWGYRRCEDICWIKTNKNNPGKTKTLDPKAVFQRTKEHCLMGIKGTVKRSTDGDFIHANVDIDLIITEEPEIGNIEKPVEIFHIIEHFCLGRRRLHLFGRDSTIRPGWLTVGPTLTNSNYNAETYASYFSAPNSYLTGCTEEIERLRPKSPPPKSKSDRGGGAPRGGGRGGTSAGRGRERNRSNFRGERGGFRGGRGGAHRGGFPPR
Cytochrome P450 2C9, sequence (P11712 whole entry): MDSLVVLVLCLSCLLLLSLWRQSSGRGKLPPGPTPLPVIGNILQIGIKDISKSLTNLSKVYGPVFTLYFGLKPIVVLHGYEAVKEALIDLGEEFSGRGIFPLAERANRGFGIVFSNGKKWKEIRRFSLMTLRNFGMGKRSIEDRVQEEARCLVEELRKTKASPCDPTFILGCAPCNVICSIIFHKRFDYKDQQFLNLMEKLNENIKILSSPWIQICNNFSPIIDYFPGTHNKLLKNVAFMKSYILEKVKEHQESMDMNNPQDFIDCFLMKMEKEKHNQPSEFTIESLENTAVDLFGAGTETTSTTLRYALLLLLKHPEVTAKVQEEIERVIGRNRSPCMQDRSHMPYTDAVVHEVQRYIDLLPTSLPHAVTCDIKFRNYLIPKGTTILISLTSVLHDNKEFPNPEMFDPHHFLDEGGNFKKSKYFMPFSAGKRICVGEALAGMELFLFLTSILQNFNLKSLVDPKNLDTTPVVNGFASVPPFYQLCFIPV
Cytochrome P450 3A4, sequence (P08684 whole entry): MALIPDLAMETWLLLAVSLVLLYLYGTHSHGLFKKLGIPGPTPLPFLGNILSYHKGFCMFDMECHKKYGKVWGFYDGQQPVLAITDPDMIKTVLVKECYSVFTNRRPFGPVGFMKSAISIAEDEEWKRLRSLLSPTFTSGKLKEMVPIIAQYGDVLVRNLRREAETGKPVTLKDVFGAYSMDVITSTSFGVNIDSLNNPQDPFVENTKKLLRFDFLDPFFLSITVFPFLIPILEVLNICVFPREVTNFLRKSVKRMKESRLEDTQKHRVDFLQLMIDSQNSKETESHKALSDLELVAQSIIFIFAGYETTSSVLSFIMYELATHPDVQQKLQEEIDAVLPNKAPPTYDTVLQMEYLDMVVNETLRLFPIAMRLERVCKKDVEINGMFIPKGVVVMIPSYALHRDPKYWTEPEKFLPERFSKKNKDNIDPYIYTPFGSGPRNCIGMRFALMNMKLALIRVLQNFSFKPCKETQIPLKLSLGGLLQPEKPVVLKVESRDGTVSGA
Voltage-gated inwardly rectifying potassium channel KCNH2, sequence (Q12809 whole entry): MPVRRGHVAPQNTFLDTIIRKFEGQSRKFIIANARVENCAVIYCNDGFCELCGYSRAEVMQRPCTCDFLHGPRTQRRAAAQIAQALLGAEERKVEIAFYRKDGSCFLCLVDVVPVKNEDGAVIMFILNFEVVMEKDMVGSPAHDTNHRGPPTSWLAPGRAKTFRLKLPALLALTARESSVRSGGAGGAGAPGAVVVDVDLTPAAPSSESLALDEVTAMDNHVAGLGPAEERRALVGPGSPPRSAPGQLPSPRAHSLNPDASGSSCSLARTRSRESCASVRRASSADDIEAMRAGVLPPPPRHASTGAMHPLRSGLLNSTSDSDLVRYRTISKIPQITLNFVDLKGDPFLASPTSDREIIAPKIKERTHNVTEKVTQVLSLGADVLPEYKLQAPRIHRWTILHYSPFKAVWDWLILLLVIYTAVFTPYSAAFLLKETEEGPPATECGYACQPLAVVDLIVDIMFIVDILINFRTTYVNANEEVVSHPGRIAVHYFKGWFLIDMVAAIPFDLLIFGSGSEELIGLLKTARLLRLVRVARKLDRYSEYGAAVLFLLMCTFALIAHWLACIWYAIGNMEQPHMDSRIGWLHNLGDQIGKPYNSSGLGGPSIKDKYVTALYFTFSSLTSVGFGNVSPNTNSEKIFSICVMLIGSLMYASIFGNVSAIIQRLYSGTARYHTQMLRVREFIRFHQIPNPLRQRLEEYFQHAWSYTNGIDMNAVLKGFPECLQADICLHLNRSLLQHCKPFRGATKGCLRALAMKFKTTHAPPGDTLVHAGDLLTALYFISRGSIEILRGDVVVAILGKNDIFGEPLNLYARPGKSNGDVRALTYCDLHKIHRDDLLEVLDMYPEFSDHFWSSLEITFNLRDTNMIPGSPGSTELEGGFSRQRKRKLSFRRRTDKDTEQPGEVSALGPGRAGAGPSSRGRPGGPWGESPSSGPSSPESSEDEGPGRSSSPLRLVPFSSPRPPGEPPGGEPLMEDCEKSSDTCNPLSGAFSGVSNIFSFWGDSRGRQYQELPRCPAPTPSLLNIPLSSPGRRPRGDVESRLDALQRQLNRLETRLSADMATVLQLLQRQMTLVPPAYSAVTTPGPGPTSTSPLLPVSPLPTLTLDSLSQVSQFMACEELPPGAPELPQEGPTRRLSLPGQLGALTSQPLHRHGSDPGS

Compound: C[C@@H](n1cc(-c2cncc(N(C)C)c2)nn1)n1ccc(N2CCC[C@@H](NCC3CC3)C2)cc1=O
- IC50 [1]: 0.005 µM
- inhibition [2]: Dose-dependent-effect
- IC50 [3]: 0.003 µM
- inhibition [4]: Dose-dependent-effect
- Activity [5]: Active
- IC50 [6]: 0.037 µM
- IC50 [7]: > 30 µM
- Activity [8]: Non-toxic
- IC50 [9]: > 100 µM
- fAUC [10]: 5.1 µM·min
- IC50 [11]: 0.169 µM
- Activity [12]: Non-toxic
- Fu [13]: 23%
- Activity [14]: Active
- half-life [15]: 2.34 h
- Activity [16]: Active
- IC50 [17]: 0.9 µM
- IC50 [18]: 0.009 µM
- inhibition [19]: Dose-dependent-effect
- inhibition [20]: Active
- Activity [21]: Active
- IC50 [22]: 0.05 µM
- IC50 [23]: > 100 µM
- IC50 [24]: 0.007 µM
- inhibition [25]: Dose-dependent-effect
- Activity [26]: Non-toxic
- Activity [27]: Active
- half-life [28]: > 4 h
- IC50 [29]: 0.002 µM
- Activity [30]: Active
- IC50 [31]: 0.006 µM
- inhibition [32]: Dose-dependent-effect
- Activity [33]: Dose-dependent-effect
- Activity [34]: Non-toxic
- IC50 [35]: 0.018 µM
- inhibition [36]: Active
- IC50 [37]: > 100 µM
